Data reported in ChEMBL document CHEMBL5352410, “Discovery of novel selenium-containing azole derivatives as antifungal agents by exploiting the hydrophobic cleft of CYP51” (Eur J Med Chem, 2022).
≈ marks a conversion by molar mass, not a printed value.

Tests used:
Candida albicans [1] = assay: Antibiofilm activity against Candida albicans SC5314 assessed as sessile minimum inhibitory concentration measured after 1.5 hrs by XTT assay; assay type: functional
Pichia kudriavzevii = assay: Antifungal activity against Pichia kudriavzevii by CLSI based broth microdilution method; assay type: functional
Candida albicans [2] = assay: Antifungal activity against FCZ-resistant Candida albicans 17# by CLSI based broth microdilution method; assay type: functional
Candida albicans [3] = assay: Antibiofilm activity against Candida albicans SC5314 assessed as sessile minimum inhibitory concentration measured after 6 hrs by XTT assay; assay type: functional
Candida albicans [4] = assay: Antibiofilm activity against Candida albicans CPCC400616 assessed as sessile minimum inhibitory concentration measured after 3 hrs by XTT assay; assay type: functional
Candida albicans [5] = assay: Fungicidal activity against Candida albicans; assay type: functional
Candida albicans [6] = assay: Antifungal activity against Candida albicans sc5314 by CLSI based broth microdilution method; assay type: functional
[7] = Cytotoxicity against human PC-3 cells by MTT assay; assay type: toxicity, cell-based
Candida albicans [8] = assay: Antibiofilm activity against Candida albicans CPCC400616 assessed as sessile minimum inhibitory concentration measured after 24 hrs by XTT assay; assay type: functional
Candida albicans [9] = assay: Antifungal activity against FCZ-resistant Candida albicans CaR by CLSI based broth microdilution method; assay type: functional
Candida albicans [10] = assay: Antifungal activity against Candida albicans by CLSI based broth microdilution method; assay type: functional
Candida albicans [11] = assay: Antibiofilm activity against Candida albicans CPCC400616 assessed as sessile minimum inhibitory concentration measured after 1.5 hrs by XTT assay; assay type: functional
Candida albicans [12] = assay: Fungicidal activity against FCZ-resistant Candida albicans 904; assay type: functional
Candida albicans [13] = assay: Fungicidal activity against FCZ-resistant Candida albicans 632; assay type: functional
Candida albicans [14] = assay: Fungicidal activity against Candida albicans sc5314; assay type: functional
Candida albicans [15] = assay: Antibiofilm activity against Candida albicans CPCC400616 assessed as sessile minimum inhibitory concentration measured after 6 hrs by XTT assay; assay type: functional
Candida parapsilosis = assay: Antifungal activity against Candida parapsilosis by CLSI based broth microdilution method; assay type: functional; settings: Lodderomyces parapsilosis
Candida albicans [16] = assay: Antifungal activity against FCZ-resistant Candida albicans 901 by CLSI based broth microdilution method; assay type: functional
[17] = Metabolic stability in mouse liver microsome assessed as half life; assay type: ADME; settings: liver microsomes
Candida albicans [18] = assay: Fungicidal activity against FCZ-resistant Candida albicans 17#; assay type: functional
Candida albicans [19] = assay: Antifungal activity against FCZ-resistant Candida albicans 632 by CLSI based broth microdilution method; assay type: functional
[Candida] zeylanoides = Antifungal activity against Candida zeylanoides by CLSI based broth microdilution method; assay type: functional; settings: Dujonia zeylanoides
[20] = Cytotoxicity against human MDA-MB-231 cells by MTT assay; assay type: toxicity, cell-based
[21] = Cytotoxicity against human HL-60 cells by MTT assay; assay type: toxicity, cell-based
Candida albicans [22] = assay: Antibiofilm activity against Candida albicans SC5314 assessed as sessile minimum inhibitory concentration measured after 3 hrs by XTT assay; assay type: functional
Aspergillus fumigatus = assay: Antifungal activity against Aspergillus fumigatus by CLSI based broth microdilution method; assay type: functional
Candida albicans [23] = assay: Fungicidal activity against FCZ-resistant Candida albicans CaR; assay type: functional
Candida albicans [24] = assay: Antibiofilm activity against Candida albicans SC5314 assessed as sessile minimum inhibitory concentration measured after 24 hrs by XTT assay; assay type: functional
Candida albicans [25] = assay: Antifungal activity against FCZ-resistant Candida albicans 904 by CLSI based broth microdilution method; assay type: functional
Candida albicans [26] = assay: Fungicidal activity against FCZ-resistant Candida albicans 901; assay type: functional
Nakaseomyces glabratus = assay: Antifungal activity against Candida glabrata by CLSI based broth microdilution method; assay type: functional
Cryptococcus neoformans = assay: Antifungal activity against Cryptococcus neoformans by CLSI based broth microdilution method; assay type: functional
[27] = Metabolic stability in mouse liver microsome assessed as clearance; assay type: ADME; settings: liver microsomes, read-out: CLH

`Fc1ccc(C(Cn2ccnc2)[Se]C(Cn2ccnc2)c2ccc(F)cc2F)c(F)c1` (centres undefined) gave an MIC50 (Candida albicans [1]) of 1 µg/mL (≈ 2.03 µM), an MIC80 (Candida albicans [1]) of 4 µg/mL (≈ 8.11 µM) and an MIC (Pichia kudriavzevii) of 32 µg/mL (≈ 64.9 µM). The MIC (Candida albicans [2]) was 1 µg/mL (≈ 2.03 µM), the MIC50 (Candida albicans [3]) was 4 µg/mL (≈ 8.11 µM) and the MIC80 (Candida albicans [3]) was 16 µg/mL (≈ 32.4 µM). It also gave an MIC50 (Candida albicans [4]) of 1 µg/mL (≈ 2.03 µM), an MIC80 (Candida albicans [4]) of 8 µg/mL (≈ 16.2 µM) and an MFC (Candida albicans [5]) of 32 µg/mL (≈ 64.9 µM). For the same compound, the MIC (Candida albicans [6]) was 2 µg/mL (≈ 4.05 µM), the IC50 [7] was 1.45 µM and the MIC50 (Candida albicans [8]) was 4 µg/mL (≈ 8.11 µM). It also gave an MIC80 (Candida albicans [8]) of 64 µg/mL (≈ 130 µM), an MIC (Candida albicans [9]) of 2 µg/mL (≈ 4.05 µM) and an MIC (Candida albicans [10]) of 4 µg/mL (≈ 8.11 µM). For the same compound, the MIC50 (Candida albicans [11]) was 0.25 µg/mL (≈ 0.507 µM), the MIC80 (Candida albicans [11]) was 2 µg/mL (≈ 4.05 µM) and the MFC (Candida albicans [12]) was 8 µg/mL (≈ 16.2 µM). The MFC (Candida albicans [13]) was 8 µg/mL (≈ 16.2 µM), the MFC (Candida albicans [14]) was 8 µg/mL (≈ 16.2 µM) and the MIC50 (Candida albicans [15]) was 2 µg/mL (≈ 4.05 µM). For the same compound, the MIC80 (Candida albicans [15]) was 16 µg/mL (≈ 32.4 µM), the MIC (Candida parapsilosis) was 8 µg/mL (≈ 16.2 µM) and the MIC (Candida albicans [16]) was 4 µg/mL (≈ 8.11 µM). It also gave a half-life [17] of 9.8 min, an MFC (Candida albicans [18]) greater than 64 µg/mL and an MIC (Candida albicans [19]) of 4 µg/mL (≈ 8.11 µM). The MIC ([Candida] zeylanoides) was 2 µg/mL (≈ 4.05 µM), the IC50 [20] was 8.26 µM and the IC50 [21] was 4.61 µM. It also gave an MIC50 (Candida albicans [22]) of 1 µg/mL (≈ 2.03 µM), an MIC80 (Candida albicans [22]) of 4 µg/mL (≈ 8.11 µM) and an MIC (Aspergillus fumigatus) greater than 64 µg/mL. For the same compound, the MFC (Candida albicans [23]) was greater than 64 µg/mL, the MIC50 (Candida albicans [24]) was 1 µg/mL (≈ 2.03 µM) and the MIC80 (Candida albicans [24]) was 4 µg/mL (≈ 8.11 µM). The MIC (Candida albicans [25]) was 8 µg/mL (≈ 16.2 µM), the MFC (Candida albicans [26]) was 8 µg/mL (≈ 16.2 µM) and the MIC (Nakaseomyces glabratus) was 64 µg/mL (≈ 130 µM). The MIC (Cryptococcus neoformans) was 16 µg/mL (≈ 32.4 µM) and the CLint scaled [27] was 558 mL/min/kg.

In the case of `COc1cccc2c1C(=O)c1c(O)c3c(c(O)c1C2=O)C[C@@](O)(C(=O)CO)C[C@@H]3O[C@H]1C[C@H](N)[C@H](O)[C@H](C)O1` [DOXORUBICIN], the IC50 [21] is reported as less than 0.125 µM.

In the case of `Clc1ccc(C(Cn2ccnc2)[Se][Se]C(Cn2ccnc2)c2ccc(Cl)cc2)cc1` (centres undefined), the MIC50 (Candida albicans [1]) is reported as 0.5 µg/mL (≈ 0.878 µM), the MIC80 (Candida albicans [1]) is reported as 4 µg/mL (≈ 7.03 µM) and the MIC (Candida albicans [2]) is reported as 8 µg/mL (≈ 14.1 µM). For the same compound, the MIC50 (Candida albicans [3]) was 0.5 µg/mL (≈ 0.878 µM), the MIC80 (Candida albicans [3]) was 4 µg/mL (≈ 7.03 µM) and the MIC50 (Candida albicans [4]) was 0.5 µg/mL (≈ 0.878 µM). It also gave an MIC80 (Candida albicans [4]) of 4 µg/mL (≈ 7.03 µM), an MFC (Candida albicans [5]) of 64 µg/mL (≈ 112 µM) and an IC50 [7] of 2.91 µM. The MIC50 (Candida albicans [8]) was 32 µg/mL (≈ 56.2 µM), the MIC80 (Candida albicans [8]) was 128 µg/mL (≈ 225 µM) and the MIC (Candida albicans [9]) was 2 µg/mL (≈ 3.51 µM). It also gave an MIC50 (Candida albicans [11]) of 0.5 µg/mL (≈ 0.878 µM), an MIC80 (Candida albicans [11]) of 2 µg/mL (≈ 3.51 µM) and an MFC (Candida albicans [12]) of 8 µg/mL (≈ 14.1 µM). For the same compound, the MFC (Candida albicans [13]) was 8 µg/mL (≈ 14.1 µM), the MFC (Candida albicans [14]) was 32 µg/mL (≈ 56.2 µM) and the MIC50 (Candida albicans [15]) was 2 µg/mL (≈ 3.51 µM). The MIC80 (Candida albicans [15]) was 32 µg/mL (≈ 56.2 µM), the MIC (Candida albicans [16]) was 1 µg/mL (≈ 1.76 µM) and the half-life [17] was 24.4 min. It also gave an MFC (Candida albicans [18]) greater than 64 µg/mL, an MIC (Candida albicans [19]) of 4 µg/mL (≈ 7.03 µM) and an IC50 [20] of 5.5 µM. It also gave an IC50 [21] of 12.5 µM, an MIC50 (Candida albicans [22]) of 0.5 µg/mL (≈ 0.878 µM) and an MIC80 (Candida albicans [22]) of 4 µg/mL (≈ 7.03 µM). The MFC (Candida albicans [23]) was greater than 64 µg/mL, the MIC50 (Candida albicans [24]) was 0.5 µg/mL (≈ 0.878 µM) and the MIC80 (Candida albicans [24]) was 16 µg/mL (≈ 28.1 µM). For the same compound, the MIC (Candida albicans [25]) was 8 µg/mL (≈ 14.1 µM), the MFC (Candida albicans [26]) was 4 µg/mL (≈ 7.03 µM) and the CLint scaled [27] was 25.4 mL/min/kg.

`Cc1ccc(C(Cn2ccnc2)[Se]C(Cn2ccnc2)c2ccc(C)cc2)cc1` (centres undefined) showed an MIC50 (Candida albicans [1]) of 1 µg/mL (≈ 2.22 µM), an MIC80 (Candida albicans [1]) of 4 µg/mL (≈ 8.9 µM) and an MIC (Pichia kudriavzevii) of 16 µg/mL (≈ 35.6 µM). It also gave an MIC (Candida albicans [2]) of 0.5 µg/mL (≈ 1.11 µM), an MIC50 (Candida albicans [3]) of 1 µg/mL (≈ 2.22 µM) and an MIC80 (Candida albicans [3]) of 4 µg/mL (≈ 8.9 µM). For the same compound, the MIC50 (Candida albicans [4]) was 2 µg/mL (≈ 4.45 µM), the MIC80 (Candida albicans [4]) was 8 µg/mL (≈ 17.8 µM) and the MFC (Candida albicans [5]) was 64 µg/mL (≈ 142 µM). The MIC (Candida albicans [6]) was 4 µg/mL (≈ 8.9 µM), the IC50 [7] was 1.11 µM and the MIC50 (Candida albicans [8]) was 4 µg/mL (≈ 8.9 µM). For the same compound, the MIC80 (Candida albicans [8]) was 16 µg/mL (≈ 35.6 µM), the MIC (Candida albicans [9]) was 2 µg/mL (≈ 4.45 µM) and the MIC (Candida albicans [10]) was 4 µg/mL (≈ 8.9 µM). It also gave an MIC50 (Candida albicans [11]) of 1 µg/mL (≈ 2.22 µM), an MIC80 (Candida albicans [11]) of 4 µg/mL (≈ 8.9 µM) and an MFC (Candida albicans [12]) of 8 µg/mL (≈ 17.8 µM). For the same compound, the MFC (Candida albicans [13]) was 8 µg/mL (≈ 17.8 µM), the MFC (Candida albicans [14]) was 16 µg/mL (≈ 35.6 µM) and the MIC50 (Candida albicans [15]) was 2 µg/mL (≈ 4.45 µM). It also gave an MIC80 (Candida albicans [15]) of 8 µg/mL (≈ 17.8 µM), an MIC (Candida parapsilosis) of 4 µg/mL (≈ 8.9 µM) and an MIC (Candida albicans [16]) of 4 µg/mL (≈ 8.9 µM). For the same compound, the MFC (Candida albicans [18]) was greater than 64 µg/mL, the MIC (Candida albicans [19]) was 4 µg/mL (≈ 8.9 µM) and the MIC ([Candida] zeylanoides) was 2 µg/mL (≈ 4.45 µM). For the same compound, the IC50 [20] was 4.21 µM, the IC50 [21] was 8.13 µM and the MIC50 (Candida albicans [22]) was 1 µg/mL (≈ 2.22 µM). The MIC80 (Candida albicans [22]) was 4 µg/mL (≈ 8.9 µM), the MIC (Aspergillus fumigatus) was greater than 64 µg/mL and the MFC (Candida albicans [23]) was greater than 64 µg/mL. For the same compound, the MIC50 (Candida albicans [24]) was 2 µg/mL (≈ 4.45 µM), the MIC80 (Candida albicans [24]) was 4 µg/mL (≈ 8.9 µM) and the MIC (Candida albicans [25]) was 4 µg/mL (≈ 8.9 µM). It also gave an MFC (Candida albicans [26]) of 8 µg/mL (≈ 17.8 µM), an MIC (Nakaseomyces glabratus) of 16 µg/mL (≈ 35.6 µM) and an MIC (Cryptococcus neoformans) of 32 µg/mL (≈ 71.2 µM).
